Like-named read-outs stand apart in the source and are kept apart here.
How the values were obtained:
[1] = test system: APC−/−; TdTomato+ (A-tdt) organoids; test: Viability of A-tdt murine colorectal cancer organoids, resazurin assay; type: cell-based; details: 72-h exposure (table title), read-out: IC50 against A-tdt organoids
Description: (§1) Colonic crypts were isolated and colon organoids were generated from the following mouse genotypes on a C57Bl/6 background: 1. Rosa-LSL-TdTomato (hereafter LSL-tdt), 2. P53^f1/f1; LSL-tdt, and 3. LSL-KRAS^G12D/WT; P53^fl/fl; LSL-tdt mice. Subsequently, the pSECC-APC plasmid (carrying Cre, Cas9, and sgAPC) was transfected into each of the above three genotypes of colon organoids. This transfection strategy generated, in a single step, the following colorectal cancer organoids, including 1. APC^−/−; TdTomato^+ (A-tdt), 2. APC^−/−; P53^−/−; TdTomato^+ (AP-tdt), and 3. APC^−/−; KRAS^G12D/WT; P53^−/−; TdTomato^+ (AKP-tdt). Organoids of the desired genotype were selected for by Wnt/Rspo withdrawal for APC^−/−, Nutlin-3 addition for P53^−/−, and EGF withdrawal for KRAS^G12D.
(§2) Twenty four hours after seeding the organoids, a media change was performed and dose responses of oxaliplatin, doxorubicin and doxaliplatin were added. […] Organoids were cultured in Advanced DMEM/F12 supplemented with 2 mM GlutaMAX, 1% Penicillin-Streptomycin, 2% B27, and Y-27632 (10 μM).

[2] = test system: APC−/−; KRASG12D/WT; P53−/−; MSH2−/− (AKP-MSH2) organoids; test: Viability of AKP-MSH2 murine colorectal cancer organoids; type: cell-based; details: 72-h exposure, read-out: IC50 against AKP-MSH2 organoids
Description: (§3) To generate 4. APC^−/−; KRAS^G12D/WT; P53^−/−; (AKP) and 5. APC^−/−; KRAS^G12D/WT; P53^−/−; MSH2^−/− (AKP-MSH2) colon cancer organoids, colonic crypts were isolated and colon organoids were generated from the following mouse genotypes on a C57Bl/6 background: 4. LSL-KRAS^G12D/WT; P53^fl/fl mice and 5. LSL-KRAS^G12D; P53^fl/fl; MSH2^fl/fl mice. Subsequently, the pSECC-APC plasmid (carrying Cre, Cas9, and sgAPC) was transfected into each of the above two genotypes of colon organoids. Following pSECC-APC transfection, Wnt/Rspo withdrawal was performed and surviving (APC^−/−) single organoids were cloned and PCR genotyped for Cre mediated deletion of p53 and/or MSH2, and for Cre mediated activation of oncogenic KRAS^G12D.
as §2

[3] = test system: U2OS human osteosarcoma; test: Cell growth, resazurin assay, U2OS; type: cell-based; details: 96-h exposure (table title), read-out: IC50 U2OS (bone)
Description: (§4) Cells were cultured in 10 mL of Advanced DMEM/F12 (ADMEM/F12), supplemented with 5% FBS, 2 mM GlutaMAX, and 1% Penicillin-Streptomycin in 10 cm tissue culture plates. Cells were then plated into 96-well plates with about 2.5×10^3 cells per well. Cells were plated with 200 μL per well of ADMEM/F12 supplemented with 5% FBS, 2 mM GlutaMAX, and 1% Penicillin-Streptomycin. Cells were treated with dose responses of doxorubicin, oxaliplatin, or doxaliplatin upon plating. The cells were then cultured for 72 hours following drug treatment, and cell growth was measured by resazurin assay.

[4] = test system: APC−/−; KRASG12D/WT; P53−/−; TdTomato+ (AKP-tdt) organoids; test: Viability of AKP-tdt murine colorectal cancer organoids, resazurin assay; type: cell-based; details: 72-h exposure (table title), read-out: IC50 against AKP-tdt organoids
Description: as §1, §2

[5] = test system: PC3 human prostate adenocarcinoma; test: Cell growth, resazurin assay, PC3; type: cell-based; details: 96-h exposure (table title)
Description: as §4

[6] = test system: OVCAR8-OXR oxaliplatin-resistant human ovarian cancer cell line; test: Cell growth, resazurin assay, OVCAR8-OXR; details: for Fold Resistance (IC50, OVCAR8OXR vs OVCAR8): based on IC50 values; for Fold Resistance (IC80, OVCAR8OXR vs OVCAR8): based on IC80 values; for IC50: read-out: IC50 OVCAR8OXR; for IC80: read-out: IC80 OVCAR8OXR
Description: Cells were cultured in 10 mL of Advanced DMEM/F12 (ADMEM/F12), supplemented with 5% FBS, 2 mM GlutaMAX, and 1% Penicillin-Streptomycin in 10 cm tissue culture plates. Cells were then plated into 96-well plates with about 2.5×10^3 cells per well. Cells were plated with 200 μL per well of ADMEM/F12 supplemented with 5% FBS, 2 mM GlutaMAX, and 1% Penicillin-Streptomycin. […] The cells were then cultured for 72 hours following drug treatment, and cell growth was measured by resazurin assay.

[7] = test system: MDA-MB-231 human breast adenocarcinoma; test: Cell growth, resazurin assay, MDA-MB-231; type: cell-based; details: 96-h exposure (table title)
Description: as §4

[8] = test system: doxorubicin-resistant A2780ADR ovarian cancer cell line
Description: (§5) ICP-MS was performed on an Agilent 7900 ICP-MS in helium mode.
(§6) The cells in a six-well plate were treated with oxaliplatin, doxaliplatin, or a mixture of doxorubicin and oxaliplatin at indicated concentration in 2 mL of Advanced DMEM/F12 (ADMEM/F12), supplemented with 5% FBS, 2 mM GlutaMAX, and 1% Penicillin-Streptomycin. After three hours, the media were removed. The cells were washed with xl PBS buffer containing EDTA (100 μM, 4 mL×2). To each well, MilliQ water (1.0 mL) was added. After 15 min, the cells were suspended. A portion of the resulting cell lysate (900 μL) was transferred to an Eppendorf tube. The samples were frozen in liquid nitrogen and thawed at room temperature. This procedure was repeated for three times. The insoluble lysate was pelleted (10000 rpm for 10 min). […] Pierce 660 nm Protein solution (200 μL) was added to each well. An aliquot of the lysate (14.2 μL) was added to each well. The plate was shaken and read on a plate reader. The remaining samples were frozen at liquid nitrogen temperature and lyophilized. The dried material was digested with Aristar® ultrapure concentrated nitric acid (70%) at 70° C. for one hour. An aliquot of this solution (142 μL) was mixed with molecular biology grade water (2000 μL) and a terbium internal standard (40 μL, 100 ppb). The platinum content was then determined using an Agilent 7900 ICP-MS in helium mode. The concentration of platinum in the cells was normalized to measured protein concentration described above.

[9] = test system: A549 human lung carcinoma; test: Cell growth, resazurin assay, A549; type: cell-based; details: 96-h exposure (table title)
Description: as §4

[10] = test system: APC−/−; P53−/−; TdTomato+ (AP-tdt) organoids; test: Viability of AP-tdt murine colorectal cancer organoids, resazurin assay; type: cell-based; details: 72-h exposure (table title), read-out: IC50 against AP-tdt organoids
Description: as §1, §2

[11] = test system: cisplatin-resistant A2780CIS human ovarian cancer cell line; test: Cell growth, resazurin assay, A2780CIS; type: cell-based; details: 72-h exposure
Description: as §4

[12] = test system: HT-29 human colorectal adenocarcinoma; test: Cell growth, resazurin assay, HT-29; type: cell-based; details: 96-h exposure (table title), read-out: IC50 HT-29 (colon)
Description: as §4

[13] = test system: OVCAR8 human ovarian cancer cell line; test: Cell growth, resazurin assay, OVCAR8; type: cell-based; details: 72-h exposure
Description: as §4

[14] = test system: A2780 human ovarian cancer cell line; test: Whole-cell platinum uptake by ICP-MS, A2780; details: three hours
Description: as §5, §6

[15] = test system: HL60 human leukemia cell line; test: Cell growth, resazurin assay, HL60; type: cell-based; details: 96-h exposure (table title)
Description: as §4

[16] = test system: APC−/−; KRASG12D/WT; P53−/− (AKP) organoids; test: Viability of AKP murine colorectal cancer organoids; type: cell-based; details: 72-h exposure, read-out: IC50 against AKP organoids
Description: as §3, §2

[17] = test system: A2780 human ovarian cancer cell line; test: Cell growth, resazurin assay, A2780; type: cell-based; details: A2780, 72-h exposure
Description: as §4

[18] = test system: doxorubicin-resistant A2780ADR human ovarian cancer cell line; test: Cell growth, resazurin assay, A2780ADR; type: cell-based; details: 72-h exposure
Description: as §4

[19] = test system: A2780 human ovarian cancer cell line; details: human, 3 h
Description: as §5, §6

O=C1[O][Pt]2([NH][C@@H]3CCCC[C@H]3[NH]2)[O]C1=O [Ox, oxaliplatin]
IC50 [1]: 2200 nM
IC50 [2]: 2200 nM
IC50 [3]: 580 nM
IC50 [4]: 4100 nM
IC50 [5]: 1000 nM
Fold Resistance (IC50, OVCAR8OXR vs OVCAR8) ([6]; 72-h exposure): 14 fold
Fold Resistance (IC80, OVCAR8OXR vs OVCAR8) ([6]; 72-h exposure): 3.3 fold
IC50 ([6]; 72-h exposure): 8200 ± 1300 nM
IC80 ([6]; 72-h exposure): 40000 ± 2000 nM
IC50 [7]: 920 nM
Platinum drug uptake (separate comparison experiment) [8]: 0.0065 ± 0.0004 nmol/mg protein
Platinum drug uptake ([8]; A2780ADR, [Drug] 0.20 μM, three hours): 0.0011 ± 0.0004 nmol/mg protein
Platinum drug uptake ([8]; A2780ADR, [Drug] 1.0 μM, three hours): 0.0039 ± 0.0001 nmol/mg protein
Platinum drug uptake ([8]; A2780ADR, [Drug] 5.0 μM, three hours): 0.023 ± 0.001 nmol/mg protein
IC50 [9]: 400 nM
IC50 [10]: 1500 nM
IC50 [11]: 430 nM
IC90 [11]: 6600 nM
IC95 [11]: 13000 nM
IC50 [12]: 470 nM
IC50 [13]: 580 ± 60 nM
IC80 [13]: 12000 ± 3000 nM
Platinum drug uptake ([14]; A2780, [Drug] 0.20 μM): 0.0029 ± 0.0006 nmol/mg protein
Platinum drug uptake ([14]; A2780, [Drug] 1.0 μM): 0.0093 ± 0.0004 nmol/mg protein
Platinum drug uptake ([14]; A2780, [Drug] 5.0 μM): 0.050 ± 0.004 nmol/mg protein
Platinum drug uptake (separate comparison experiment) ([14]; A2780, single drug 1.0 μM or oxaliplatin 1.0 μM + doxorubicin 1.0 μM): 0.011 ± 0.000 nmol/mg protein
IC50 [15]: 560 nM
IC50 [16]: 1400 nM
IC50 [17]: 170 nM
IC90 [17]: 590 nM
IC95 [17]: 5600 nM
IC50 [18]: 430 nM
IC90 [18]: 2400 nM
IC95 [18]: 29000 nM

COc1cccc2c1C(=O)c1c(O)c3c(c(O)c1C2=O)C[C@@](O)(C(=O)CO)C[C@@H]3O[C@H]1C[C@H](N)[C@H](O)[C@H](C)O1 [DOX, doxorubicin]
IC50 ([1]; Mus musculus): 58 nM
IC50 ([2]; Mus musculus): 6.5 nM
IC50 ([3]; Homo sapiens, U2OS): 13 nM
IC50 ([4]; Mus musculus): 75 nM
IC50 ([5]; Homo sapiens): 41 nM
IC50 ([6]; Homo sapiens, 72 h): 250 ± 10 nM
IC80 ([6]; Homo sapiens, 72 h): 740 ± 50 nM
Fold Resistance (IC50, OVCAR8OXR vs OVCAR8) ([6]; 72-h exposure): 2.9 fold
Fold Resistance (IC80, OVCAR8OXR vs OVCAR8) ([6]; 72-h exposure): 1.8 fold
IC50 ([7]; Homo sapiens, MDA-MB-231): 75 nM
Platinum drug uptake ([8]; human, 3 h, 0.2 μM): 0.0087 ± 0.0008 nmol/mg protein
Platinum drug uptake ([8]; human, 3 h, 1 μM): 0.051 ± 0.001 nmol/mg protein
Platinum drug uptake ([8]; human, 3 h, 5 μM): 0.36 ± 0.07 nmol/mg protein
IC50 ([9]; Homo sapiens, A549): 23 nM
IC50 ([10]; Mus musculus): 45 nM
IC95 [11]: 540 nM
IC50 ([11]; Homo sapiens): 50 nM
IC90 ([11]; Homo sapiens): 390 nM
IC50 ([12]; Homo sapiens, HT-29): 38 nM
IC50 ([13]; Homo sapiens, OVCAR-8): 86 ± 3 nM
IC80 ([13]; Homo sapiens, OVCAR-8): 410 ± 20 nM
IC50 ([15]; Homo sapiens, HL-60): 43 nM
IC50 ([16]; Mus musculus): 9.1 nM
IC95 [17]: 160 nM
IC50 ([17]; Homo sapiens): 11 nM
IC90 ([17]; Homo sapiens): 75 nM
Platinum drug uptake ([19]; 0.2 μM): 0.023 ± 0.002 nmol/mg protein
Platinum drug uptake ([19]; 1 μM): 0.12 ± 0.01 nmol/mg protein
Platinum drug uptake ([19]; 5 μM): 0.63 ± 0.03 nmol/mg protein
IC95 [18]: 1600 nM
IC50 ([18]; Homo sapiens, A2780 ADR): 54 nM
IC90 ([18]; Homo sapiens, A2780 ADR): 620 nM

— patent US11203608B2, “Platinum-containing compounds, and related compositions and uses thereof” (Massachusetts Institute of Technology, priority 2019, dated 2021)
